Source: article PMC10970924 (Life, 2024)
Read-outs that look alike come from different tables or passages of the source.

Assays:
PC-3 cells = details: for Olive Moment / Tail Area / Tail DNA % / Tail Intensity / Tail Length / Tail Moment: 3 days; for DNA breaks in the Comet assay (in words): PC-3, 72 h
Method: PC-3 and MCF-7 cells were seeded into 6-well plates at a concentration of 15,000 cells/mL. […] Cells were trypsinized and washed, then placed in 0.7% low melting point agarose and mounted on glass slides (200 000 cells/sample). Slides were treated with lysis solution (2.5 M NaCl, 0.1 M disodium EDTA, 1% Triton X-100, 10 mM Tris base, 10% DMSO, pH 10) for 1 h at 4 °C. Next, the samples were placed in an alkaline solution (12 g of NaOH brought to 1 L with water, disodium EDTA 0.2 M, pH >13) and incubated for 30 min at room temperature. Afterward, the slides were washed with electrophoresis 1X TBE buffer (10X TBE: 9.3 g disodium salt EDTA, 108 g Tris base, and 55 g boric acid per 1 L of water) twice and placed in the electrophoresis chamber. Electrophoresis was carried out under neutral conditions in 1X TBE buffer for 30 min at 31 V (at the rate of 1 V/cm). Afterward, the slides were washed in PBS (Ca free, Mg free) 2 times for 5 min, fixed in 96% ethanol for 5 min, and dried. Before analysis, 50 μL of SYBR Green solution (1μL stock + 10 mL TE buffer) was applied to the slides. Using an Observer Z1 fluorescent optical microscope (Carl Zeiss, Jena, Germany), photographs of cells were taken and analyzed in the ImageJ program (Plugin OpenComet).
“Tail moment” (TM) and “Olive moment” (OTM) were calculated using the following formula:(1) TM=(Fluor in tail/Fluor total )×tail lenght (2) OTM=(Tail mean−Head mean)×(Tail DNA %)/100.

MCF-7 cells = test: Cell cycle analysis, Hoechst 33342 flow cytometry; format: cell-based, human; details: MCF-7, 72 h
Method: MCF-7 cells were seeded at a density of 15,000 cells/mL in a 6-well plate in 3 mL of complete medium. After 24 h, the medium was replaced with one containing the studied compounds and incubated for 72 h. After incubation, cells were stained with Hoechst 33342 (Roche, Basel, Switzerland) at a concentration of 6 μg/mL for 30 min in the CO2 incubator. The nutrient medium over cells containing the floating cells was collected into tubes, and then the remaining adherent cells were trypsinized and added to the tubes with the floating cells. After this, cells were centrifuged and washed with a DPBS buffer. The fluorescence intensity of cells was measured using the flow cytofluorimeter BD FACSCalibur™ (BD Biosciences, Franklin Lakes, NJ, USA). To identify single cells, direct scatter (FS) and side scatter (SS) measurements were used, and cell doublets were excluded from the analysis using pulse processing based on the area-to-pulse width ratio.

[1] = Neutralization of the ABTS radical; details: for EC50: 37 °C, 15 min, 738 nm, read-out: EC50 of half-maximal ABTS radical inhibition; for Trolox Equivalent Antioxidant Capacity (TEAC): ABTS radical neutralization, relative to Trolox
Method: Initially, an ABTS solution was prepared in water at a concentration of 7 mM. Subsequently, the radical cation ABTS^•+ was generated by mixing the original ABTS solution with 2.45 mM ammonium persulfate at a 1:1 ratio. This mixture was then allowed to stand in the dark at room temperature for 12–16 h before use. The diluted ABTS^•+ solution was prepared in a methanol/water mixture (1:1) reaching an optical density of 0.7 units at 738 nm (~0.7 mM). Next, various concentrations of compounds (ranging from 1000, 500, 250, 125, 62.5, 31.2, 15.6, to 7.8 μM) in a volume of 130 µL in a methanol/water mixture (1:1) were mixed with the ABTS radical cation solution (~0.7 mM) in a volume of 130 µL. The mixture was then incubated at 37 °C in a water bath for 15 min. The optical density was measured at 738 nm using the Infinite M200 PRO (TECAN, Zürich, Switzerland) plate reader. The percentage inhibition of ABTS absorption relative to the control was calculated. A percent inhibition vs. antioxidant concentration graph was plotted and the concentration of the antioxidant that suppresses the optical density of the ABTS radical by 50% (EC50) was determined. The Trolox Equivalent Antioxidant Capacity (TEAC) was also calculated.

porcine neuronal tubulin = test: Tubulin polymerization assay (Cytoskeleton kit); format: biochemical; details: effector 10 µM; for Maximum Initial Rate of Polymerization V Max: tubulin 3 mg/mL, 37 °C
Method: To assess the effect of the test compounds on tubulin polymerization, a test kit from Cytoskeleton was used. The plate was pre-warmed to 37 °C for 20 min before starting the assay. Then, 10 µL of the compound of interest, at a 10-fold concentration in an assay buffer, was pipetted into the plate. For comparison, paclitaxel, a polymerization enhancer, and vinblastine, a tubulin polymerization inhibitor, were used. Both effectors were used at a concentration of 10 µM. The assay buffer served as a control. The plate was then incubated at 37 °C for 2 min, after which 100 µL of the diluted tubulin solution (containing 3 mg/mL of tubulin in 80 mM PIPES pH 6.9, 2 mM MgCl2, 0.5 mM EGTA, 1 mM GTP, and 7% glycerol) was added. The plate was then immediately placed in the plate reader. Absorbance was measured at 340 nm every minute for 61 readings on a Varioskan LUX (Thermo Scientific, Waltham, MA, USA) plate reader.

HCT-116 and MCF-7 cells = test: Confocal microscopy of intracellular localization; format: cell-based, human; details: DOX-1 and DOX-2 5 μM, 24 h; DOX 50 μM, 2 h
Method: A total of 24 h later, the studied compounds DOX-1 and DOX-2 at a concentration of 5 µM were added. Following another 24 h incubation period, Hoechst 33342 (Roche) was added, reaching a final concentration of 1.5 µg/mL. After 15 min, the dye-containing media was removed, and DBBS was added. The plate was subsequently analyzed using confocal microscopy (Zeiss LSM800, Jena, Germany).

HCT-116 = test: Mitochondrial membrane potential, rhodamine 123 flow cytometry; format: cell-based, human; details: tumor cells (HCT-116 in Figure 4a), 72 h, IC50 or higher
Method: Cells were seeded in a 12-well plate at a density of 1 × 10^5 cells/well and incubated for 24 h at 37 °C in a humid atmosphere with 5% CO2 prior to treatment. Cells were bathed in complete DMEM media containing the respective compounds, using a solvent (dH2O/DMSO) as a negative control. After 72 h, the nutrient medium over cells containing the floating cells was collected into tubes, and then the adherent cells were trypsinized and added to the fraction of floating cells. Cell suspensions were then centrifuged, and the pellet was suspended in phosphate-buffered saline (PBS) to a final density of 5 × 10^5 cells/mL. Cell suspension in a volume of 250 μL and 500 nM rhodamine 123 were added to a rounded-well plate, followed by incubation for 30 min at 25° C. Measurements were conducted using flow cytometry on the Millipore Guava EasyCyte HT Flow Cytometer System in a green fluorescent channel.

COc1cccc2c1C(=O)c1c(O)c3c(c(O)c1C2=O)C[C@@](O)(C(=O)CO)C[C@@H]3O[C@H]1C[C@H](N)[C@H](O)[C@H](C)O1 [DOX, Doxorubicin, reference compound]
Olive Moment (PC-3 cells; PC-3, 0.5 µM (IC25)): 8.13 | Tail Area (PC-3 cells; PC-3, 0.5 µM (IC25)): 2215 | Tail DNA % (PC-3 cells; PC-3, 0.5 µM (IC25)): 22.7% | Tail Intensity (PC-3 cells; PC-3, 0.5 µM (IC25)): 66 | Tail Length (PC-3 cells; PC-3, 0.5 µM (IC25)): 51 | Olive Moment (PC-3 cells; PC-3, 1.1 µM (IC50)): 11.64 | Tail Area (PC-3 cells; PC-3, 1.1 µM (IC50)): 1902 | Tail DNA % (PC-3 cells; PC-3, 1.1 µM (IC50)): 35.2% | Tail Intensity (PC-3 cells; PC-3, 1.1 µM (IC50)): 74 | Tail Length (PC-3 cells; PC-3, 1.1 µM (IC50)): 51 | DNA breaks in the Comet assay (in words) (PC-3 cells): induces DNA breaks | Effect on the cell cycle (in words) (MCF-7 cells): cell-cycle arrest in the G2M phase | EC50 [1]: 6.7 ± 0.7 µM | Trolox Equivalent Antioxidant Capacity (TEAC) [1]: 2.34 | Impact on tubulin polymerization (in words) (porcine neuronal tubulin): no statistically significant impact | Maximum Initial Rate of Polymerization V Max (porcine neuronal tubulin): 5.5 mOD/Min | Penetration into the cell nuclei (in words) (HCT-116 and MCF-7 cells): efficiently permeates and accumulates in the cell nuclei | Effect on mitochondrial potential ΔΨ (in words) (HCT-116): significant number of cells with reduced mitochondrial potential

COc1cccc2c1C(=O)c1c(O)c3c(c(O)c1C2=O)CC(O)(C(=O)CO)CC3OC1CC(NC(=O)c2cnc(C)c3c2COC(C)(C)O3)C(O)C(C)O1 (stereo not drawn) [DOX-1, N-(3-hydroxy-2-methyl-6-((3,5,12-trihydroxy-3-(2-hydroxyacetyl)-10-methoxy-6,11-dioxo-1,2,3,4,6,11-hexahydrotetracen-1-yl)oxy)tetrahydro-2H-pyran-4-yl)-2,2,8-trimethyl-4H-[1,3]dioxino[4,5-c]pyridine-5-carboxamide]
Olive Moment (PC-3 cells; PC-3, 3 µM (IC25)): 2.48 | Tail Area (PC-3 cells; PC-3, 3 µM (IC25)): 1094 | Tail DNA % (PC-3 cells; PC-3, 3 µM (IC25)): 6.7% | Tail Intensity (PC-3 cells; PC-3, 3 µM (IC25)): 34 | Tail Length (PC-3 cells; PC-3, 3 µM (IC25)): 10 | Tail Moment (PC-3 cells; PC-3, 3 µM (IC25)): 1.07 | Olive Moment (PC-3 cells; PC-3, 6.1 µM (IC50)): 2.24 | Tail Area (PC-3 cells; PC-3, 6.1 µM (IC50)): 1196 | Tail DNA % (PC-3 cells; PC-3, 6.1 µM (IC50)): 6.7% | Tail Intensity (PC-3 cells; PC-3, 6.1 µM (IC50)): 30 | Tail Length (PC-3 cells; PC-3, 6.1 µM (IC50)): 17 | Tail Moment (PC-3 cells; PC-3, 6.1 µM (IC50)): 1.36 | Olive Moment (PC-3 cells; PC-3, 11.3 µM (IC70)): 3.79 | Tail Area (PC-3 cells; PC-3, 11.3 µM (IC70)): 1403 | Tail DNA % (PC-3 cells; PC-3, 11.3 µM (IC70)): 11.4% | Tail Intensity (PC-3 cells; PC-3, 11.3 µM (IC70)): 37 | Tail Length (PC-3 cells; PC-3, 11.3 µM (IC70)): 12 | Tail Moment (PC-3 cells; PC-3, 11.3 µM (IC70)): 1.87 | DNA breaks in the Comet assay (in words) (PC-3 cells): do not cause DNA breaks | melting point: 165 to 167 °C (dec.) | EC50 [1]: 4.5 ± 0.5 µM | Trolox Equivalent Antioxidant Capacity (TEAC) [1]: 3.49 | Impact on tubulin polymerization (in words) (porcine neuronal tubulin): no statistically significant impact | Maximum Initial Rate of Polymerization V Max (porcine neuronal tubulin): 5.5 mOD/Min | Penetration into the cell nuclei (in words) (HCT-116 and MCF-7 cells): do not penetrate the cell nuclei | Effect on mitochondrial potential ΔΨ (in words) (HCT-116): significant number of cells with reduced mitochondrial potential

COc1cccc2c1C(=O)c1c(O)c3c(c(O)c1C2=O)CC(O)(C(=O)CO)CC3OC1CC(NC(=O)/C=C/c2cnc(C)c3c2COC(C)(C)O3)C(O)C(C)O1 (stereo not drawn) [DOX-2, (E)-N-(3-hydroxy-2-methyl-6-((3,5,12-trihydroxy-3-(2-hydroxyacetyl)-10-methoxy-6,11-dioxo-1,2,3,4,6,11-hexahydrotetracen-1-yl)oxy)tetrahydro-2H-pyran-4-yl)-3-(2,2,8-trimethyl-4H-[1,3]dioxino[4,5-c]pyridin-5-yl)acrylamide]
Effect on the cell cycle (in words) (MCF-7 cells): cell-cycle arrest in the G2M phase | melting point: 175 to 176 °C (dec.) | EC50 [1]: 18.9 ± 6.8 µM | Trolox Equivalent Antioxidant Capacity (TEAC) [1]: 0.83 | Impact on tubulin polymerization (in words) (porcine neuronal tubulin): no statistically significant impact | Maximum Initial Rate of Polymerization V Max (porcine neuronal tubulin): 6.8 mOD/Min | Penetration into the cell nuclei (in words) (HCT-116 and MCF-7 cells): do not penetrate the cell nuclei
